Several values for one entry are separate records, joined by “and”; a condition that tells them apart may be missing. Equal entries are not always repeated. Records with an inconclusive call do not appear.
System: BDF1 mice, Friend leukemia sc, tumor weight T/C
Test: NCI In Vivo Anticancer Drug Screen. Data for tumor model Friend Virus Leukemia (Solid) (subcutaneous) in B6D2F1 (BDF1) mice
Settings: endpoint: mean tumor weight, higher = larger tumour
Experimental: The antitumor activity of compounds was measured in mice bearing transplantable tumors. Survival or tumor size were measured and the results are expressed as the measurement made in the treated group (T) divided by the measurement made in the vehicle treated control group (C). The tumor model used in this assay is Friend Virus Leukemia (Solid) (subcutaneous) in B6D2F1 (BDF1) mice

[1] = dose: 25.0 mg/kg/injection, schedule: Q01DX011 (ip), vehicle: carboxymethylcellulose (CMC)
[2] = dose: 100.0 mg/kg/injection, schedule: Q01DX011 (ip), vehicle: carboxymethylcellulose (CMC)
[3] = dose: 15.0 mg/kg/injection, schedule: Q01DX011 (ip), vehicle: carboxymethylcellulose (CMC)
[4] = dose: 30.0 mg/kg/injection, schedule: Q01DX011 (ip), vehicle: carboxymethylcellulose (CMC)
[5] = dose: 3.0 mg/kg/injection, schedule: Q01DX011 (ip), vehicle: carboxymethylcellulose (CMC)
[6] = dose: 6.0 mg/kg/injection, schedule: Q01DX011 (ip), vehicle: carboxymethylcellulose (CMC)
[7] = dose: 0.75 mg/kg/injection, schedule: Q01DX011 (ip), vehicle: carboxymethylcellulose (CMC)
[8] = dose: 1.5 mg/kg/injection, schedule: Q01DX011 (ip), vehicle: carboxymethylcellulose (CMC)
[9] = dose: 1.0 mg/kg/injection, schedule: Q01DX011 (ip), vehicle: carboxymethylcellulose (CMC)
[10] = dose: 50.0 mg/kg/injection, schedule: Q01DX011 (ip), vehicle: carboxymethylcellulose (CMC)
[11] = dose: 10.0 mg/kg/injection, schedule: Q01DX011 (ip), vehicle: carboxymethylcellulose (CMC)
[12] = dose: 125.0 mg/kg/injection, schedule: Q01DX011 (ip), vehicle: carboxymethylcellulose (CMC)
[13] = dose: 250.0 mg/kg/injection, schedule: Q01DX011 (ip), vehicle: carboxymethylcellulose (CMC)
[14] = dose: 500.0 mg/kg/injection, schedule: Q01DX011 (ip), vehicle: carboxymethylcellulose (CMC)
[15] = dose: 0.5 mg/kg/injection, schedule: Q01DX011 (ip), vehicle: carboxymethylcellulose (CMC)
[16] = dose: 2.0 mg/kg/injection, schedule: Q01DX011 (ip), vehicle: carboxymethylcellulose (CMC)
[17] = dose: 4.0 mg/kg/injection, schedule: Q01DX011 (ip), vehicle: carboxymethylcellulose (CMC)

CC1CCC2(C(=O)O)CCC3(C)C(=CCC4C5(C)CCC(O)C(C)(C)C5CCC43C)C2C1C (configuration not stated) was tested, and the T/C (dose: 50.0 mg/kg/injection, schedule: Q01DX011 (ip), vehicle: other) was 76 % of control, the T/C (dose: 100.0 mg/kg/injection, schedule: Q01DX011 (ip), vehicle: other) was 69 % of control and the T/C (dose: 200.0 mg/kg/injection, schedule: Q01DX011 (ip), vehicle: other) was 115 % of control.

With Nc1ccccc1N the T/C [1] was 84 % of control, the T/C [2] was 11 % of control and 13 % of control and 18 % of control and the T/C (dose: 150.0 mg/kg/injection, schedule: Q01DX011 (ip), vehicle: carboxymethylcellulose (CMC)) was 10 % of control.

NNC(=O)c1ccncc1 was tested, and the T/C [3] was 80 % of control, the T/C [4] was 75 % of control and the T/C (dose: 121.0 mg/kg/injection, schedule: Q01DX011 (ip), vehicle: carboxymethylcellulose (CMC)) was 55 % of control.

In the case of CCCNC(=NC)c1ccc(NC(=O)c2ccc(C(=O)Nc3ccc(C(=NC)NCCC)cc3)cc2)cc1, the T/C [5] is reported as 80 % of control and the T/C [6] is reported as 65 % of control.

[N-]=[N+]=[N-] was tested, and the T/C (dose: 1.06 mg/kg/injection, schedule: Q01DX011 (ip), vehicle: carboxymethylcellulose (CMC)) was 89 % of control, the T/C (dose: 2.12 mg/kg/injection, schedule: Q01DX011 (ip), vehicle: carboxymethylcellulose (CMC)) was 108 % of control and the T/C (dose: 4.25 mg/kg/injection, schedule: Q01DX011 (ip), vehicle: carboxymethylcellulose (CMC)) was 114 % of control. For the same compound, the T/C (dose: 8.5 mg/kg/injection, schedule: Q01DX011 (ip), vehicle: carboxymethylcellulose (CMC)) was 117 % of control.

In the case of Cc1nc(N)nc(N)c1-c1ccc(Cl)c(Cl)c1, the T/C [7] is reported as 96 % of control, the T/C [8] is reported as 105 % of control and the T/C [5] is reported as 59 % of control.

For Nc1nc(SCc2ccccc2Cl)c2ncn(C3OC(CO)C(O)C3O)c2n1 (configuration not stated), the T/C (dose: 0.38 mg/kg/injection, schedule: Q01DX011 (ip), vehicle: carboxymethylcellulose (CMC)) was 102 % of control, the T/C [7] was 70 % of control and the T/C [9] was 61 % of control. The T/C [8] was 83 % of control, the T/C [5] was 61 % of control and 68 % of control and the T/C [6] was 61 % of control and 68 % of control. For the same compound, the T/C (dose: 12.0 mg/kg/injection, schedule: Q01DX011 (ip), vehicle: carboxymethylcellulose (CMC)) was 16 % of control and 41 % of control, the T/C [1] was 10 % of control and 28 % of control and the T/C [10] was 2 % of control.

For c1ccc(CSc2ncnc3nc[nH]c23)cc1, the T/C (dose: 5.0 mg/kg/injection, schedule: Q01DX011 (ip), vehicle: carboxymethylcellulose (CMC)) was 118 % of control, the T/C [11] was 90 % of control and the T/C [3] was 109 % of control. For the same compound, the T/C [1] was 91 % of control.

For N=C(N)c1ccc(Nc2ccc(C(=N)N)cc2)cc1, the T/C (dose: 5.0 mg/kg/injection, schedule: Q01DX011 (ip), vehicle: water) was 186 % of control, the T/C (dose: 7.5 mg/kg/injection, schedule: Q01DX011 (ip), vehicle: water) was 164 % of control and the T/C (dose: 10.0 mg/kg/injection, schedule: Q01DX011 (ip), vehicle: water) was 154 % of control. For the same compound, the T/C (dose: 15.0 mg/kg/injection, schedule: Q01DX011 (ip), vehicle: water) was 180 % of control.

In the case of CCCn1cnc2c(SCc3ccccc3Cl)nc(N)nc21, the T/C [10] is reported as 57 % of control, the T/C [2] is reported as 41 % of control and the T/C (dose: 200.0 mg/kg/injection, schedule: Q01DX011 (ip), vehicle: carboxymethylcellulose (CMC)) is reported as 12 % of control. For the same compound, the T/C (dose: 400.0 mg/kg/injection, schedule: Q01DX011 (ip), vehicle: carboxymethylcellulose (CMC)) was 5 % of control.

With Cc1ccc(N2CCN(CCCN3CCN(c4ccc(Cl)cc4)CC3)CC2)cc1 the T/C (dose: 7.5 mg/kg/injection, schedule: Q01DX011 (ip), vehicle: carboxymethylcellulose (CMC)) was 80 % of control, the T/C [3] was 61 % of control and the T/C [4] was 55 % of control and 50 % of control. The T/C (dose: 60.0 mg/kg/injection, schedule: Q01DX011 (ip), vehicle: carboxymethylcellulose (CMC)) was 49 % of control.

For C=CC1CN2CCC1CC2C(O)c1ccnc2ccc(OC)cc12 (configuration not stated), the T/C (dose: 27.0 mg/kg/injection, schedule: Q01DX011 (ip), vehicle: carboxymethylcellulose (CMC)) was 104 % of control, the T/C (dose: 27.0 mg/kg/injection, schedule: Q01DX011 (ip), vehicle: other) was 202 % of control and the T/C (dose: 27.5 mg/kg/injection, schedule: Q01DX011 (ip), vehicle: other) was 226 % of control. The T/C (dose: 55.0 mg/kg/injection, schedule: Q01DX011 (ip), vehicle: carboxymethylcellulose (CMC)) was 114 % of control, the T/C (dose: 55.0 mg/kg/injection, schedule: Q01DX011 (ip), vehicle: other) was 263 % of control and the T/C (dose: 110.0 mg/kg/injection, schedule: Q01DX011 (ip), vehicle: other) was 105 % of control and 219 % of control. For the same compound, the T/C (dose: 220.0 mg/kg/injection, schedule: Q01DX011 (ip), vehicle: carboxymethylcellulose (CMC)) was 90 % of control and the T/C (dose: 220.0 mg/kg/injection, schedule: Q01DX011 (ip), vehicle: other) was 204 % of control.

OCCc1ccccc1 was tested, and the T/C (dose: 62.0 mg/kg/injection, schedule: Q01DX011 (ip), vehicle: carboxymethylcellulose (CMC)) was 83 % of control, the T/C [12] was 63 % of control and the T/C [13] was 57 % of control. The T/C [14] was 51 % of control.

For CC1=C2C(=C[C@@](C)(CO)[C@@H]2O)C(=O)[C@](C)(O)C12CC2, the T/C (dose: 7.5 micrograms/kg/injection, schedule: Q01DX011 (ip), vehicle: carboxymethylcellulose (CMC)) was 121 % of control, the T/C (dose: 15.0 micrograms/kg/injection, schedule: Q01DX011 (ip), vehicle: carboxymethylcellulose (CMC)) was 91 % of control and the T/C (dose: 30.0 micrograms/kg/injection, schedule: Q01DX011 (ip), vehicle: carboxymethylcellulose (CMC)) was 69 % of control.

CCc1ccccc1N1CCN(C(=O)c2cc(OC)c(OC)c(OC)c2)CC1 was tested, and the T/C (dose: 0.25 mg/kg/injection, schedule: Q01DX011 (ip), vehicle: carboxymethylcellulose (CMC)) was 64 % of control, the T/C [15] was 73 % of control and the T/C [9] was 64 % of control. The T/C [16] was 53 % of control and 35 % of control, the T/C [17] was 67 % of control and the T/C (dose: 8.0 mg/kg/injection, schedule: Q01DX011 (ip), vehicle: carboxymethylcellulose (CMC)) was 40 % of control. For the same compound, the T/C (dose: 16.0 mg/kg/injection, schedule: Q01DX011 (ip), vehicle: carboxymethylcellulose (CMC)) was 42 % of control and the T/C (dose: 31.0 mg/kg/injection, schedule: Q01DX011 (ip), vehicle: other) was 11 % of control.

O=c1[nH]c(=O)n(C2CC(O)C(CO)O2)cc1Br (configuration not stated) was tested, and the T/C [12] was 72 % of control and the T/C [13] was 52 % of control.

O=P(N1CC1)(N1CC1)N1CC1 was tested, and the T/C [15] was 86 % of control, the T/C [9] was 83 % of control and the T/C [16] was 84 % of control and 88 % of control. The T/C [17] was 25 % of control and 37 % of control.

C[C@]12CC[C@@H]3c4ccc(OC(=O)c5ccccc5)cc4CC[C@H]3[C@@H]1CC[C@@H]2O was tested, and the T/C (dose: 77.25 mg/kg/injection, schedule: Q01DX011 (sc), vehicle: steriod suspending solution) was 102 % of control and the T/C (dose: 154.5 mg/kg/injection, schedule: Q01DX011 (sc), vehicle: steriod suspending solution) was 112 % of control.

For CO/[N+]([O-])=C\C(=O)N/C=C/C(=O)O, the T/C (dose: 1.25 mg/kg/injection, schedule: Q01DX011 (ip), vehicle: carboxymethylcellulose (CMC)) was 103 % of control, the T/C (dose: 2.5 mg/kg/injection, schedule: Q01DX011 (ip), vehicle: carboxymethylcellulose (CMC)) was 105 % of control and the T/C [11] was 61 % of control. For the same compound, the T/C [3] was 53 % of control and the T/C [1] was 52 % of control.

CC(C)CCS(=O)(=O)OCCCCOS(=O)(=O)CCC(C)C was tested, and the T/C (dose: 62.5 mg/kg/injection, schedule: Q01DX011 (ip), vehicle: carboxymethylcellulose (CMC)) was 98 % of control, the T/C [12] was 97 % of control and the T/C [13] was 73 % of control. For the same compound, the T/C [14] was 39 % of control.

With CSc1ncnc2c1ncn2C1OC(CO)C(O)C1O (configuration not stated) the T/C (dose: 6.0 mg/kg/injection, schedule: Q01DX011 (ip), vehicle: saline) was 105 % of control, the T/C (dose: 9.0 mg/kg/injection, schedule: Q01DX011 (ip), vehicle: saline) was 121 % of control and the T/C (dose: 12.5 mg/kg/injection, schedule: Q01DX011 (ip), vehicle: saline) was 99 % of control. For the same compound, the T/C (dose: 15.0 mg/kg/injection, schedule: Q01DX011 (ip), vehicle: saline) was 112 % of control.
